Laboratory results reported in patent US20250049970A1, “DLL3 TARGETING PEPTIDES AND CONSTRUCTS THEREOF” (MARIANA ONCOLOGY INC., priority 2023, published 2025).
*1 amine or outer side, *2 acyl side, *3 side chain or, on linkers, in order; H or OH if unused. Where a SMILES comes first, the peptide text is derived from it. Bridges are numbered along the chain shown (N, C = ends). [ ]: non-standard residue; d: D form. The star is where a group is joined. Ala(piperidin-4-yl) = O=C([C@H](CC1CCN([*:3])CC1)N[*:1])[*:2]; DOTA = O=C(O)CN1CCN(CC(=O)O)CCN(CC(=O)*)CCN(CC(=O)O)CC1; Phe(4-CF3) = N[C@@H](Cc1ccc(C(F)(F)F)cc1)C(=O)O; Trp(7-aza) = N[C@@H](Cc1c[nH]c2ncccc12)C(=O)O; Bip = N[C@@H](Cc1ccc(-c2ccccc2)cc1)C(=O)O; Phe(4-F) = N[C@@H](Cc1ccc(F)cc1)C(=O)O; 2Nal = N[C@@H](Cc1ccc2ccccc2c1)C(=O)O; NMetBuAla = CN[C@@H](CC(C)(C)C)C(=O)O; tBuAla = CC(C)(C)C[C@H](N)C(=O)O; Chg = N[C@H](C(=O)O)C1CCCCC1; Dab = NCC[C@H](N)C(=O)O; Dap = NC[C@H](N)C(=O)O; CH2 = C([*:1])[*:2]

biological target: T1, DLL3 (Homo sapiens, UniProt Q9NYJ7); assay: SPR KD, biotinylated human DLL3 on streptavidin chip (Table 8); set-up: biotin (biotinylated); conditions: biotinylated human DLL3 on streptavidin sensor chip, 25° C., 1:1 binding model; read-out: SPR KD
T1 sequence (Q9NYJ7 27-618): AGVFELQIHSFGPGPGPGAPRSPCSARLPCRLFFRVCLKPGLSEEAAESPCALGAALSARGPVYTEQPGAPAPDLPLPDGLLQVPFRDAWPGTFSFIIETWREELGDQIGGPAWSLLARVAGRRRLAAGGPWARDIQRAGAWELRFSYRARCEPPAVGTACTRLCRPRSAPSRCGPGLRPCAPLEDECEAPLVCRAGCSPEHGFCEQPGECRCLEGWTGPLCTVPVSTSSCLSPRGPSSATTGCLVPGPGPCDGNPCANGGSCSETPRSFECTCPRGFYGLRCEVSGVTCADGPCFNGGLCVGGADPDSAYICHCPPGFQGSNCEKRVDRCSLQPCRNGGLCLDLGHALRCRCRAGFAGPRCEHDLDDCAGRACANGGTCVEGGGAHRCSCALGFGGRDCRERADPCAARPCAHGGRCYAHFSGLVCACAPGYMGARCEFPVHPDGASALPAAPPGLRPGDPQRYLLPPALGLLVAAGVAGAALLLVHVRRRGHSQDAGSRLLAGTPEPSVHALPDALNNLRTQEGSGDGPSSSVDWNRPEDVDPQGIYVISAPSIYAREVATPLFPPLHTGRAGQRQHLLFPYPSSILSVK
Source text: Biotinylated target ligand human DLL3 was immobilized on a streptavidin sensor chip. A reference surface was set up for nonspecific binding and refractive index changes. […] Sensorgram curves were fitted with 1:1 binding model, and affinity and kinetic parameters were obtained using Biacore Insight evaluation 4.0. software.

Kd [nM] | Structure (SMILES)
1 to 10 | CSCC[C@H](NC(C)=O)C(=O)N[C@@H](Cc1c[nH]c2ccccc12)C(=O)N[C@H](C(=O)N[C@H](C(=O)N[C@H]1CSSC[C@@H](C(=O)N[C@@H](Cc2c[nH]c3ccccc23)C(=O)N2CCC[C@H]2C(N)=O)NC(=O)[C@H](CC(=O)O)NC(=O)[C@H](Cc2cnc[nH]2)NC(=O)[C@H](Cc2c[nH]c3ccccc23)NC(=O)[C@H](CC(N)=O)NC(=O)[C@H](CC(N)=O)NC1=O)C1CCCCC1)[C@@H](C)O [compound 44, Ac-M-W-T-(Chg)-C(3)-N-N-W-H-D-C(3)-W-P-CONH2] (Ac-MWT[Chg]CNNWHDCWP-NH2; disulfide 5-11)
10 to 100 | CSCC[C@H](NC(C)=O)C(=O)N[C@@H](Cc1c[nH]c2ccccc12)C(=O)N[C@H](C(=O)N[C@@H](Cc1ccc2ccccc2c1)C(=O)N[C@H]1CSSC[C@@H](C(=O)N[C@@H](Cc2c[nH]c3ccccc23)C(=O)N2CCC[C@H]2C(N)=O)NC(=O)[C@H](CC(=O)O)NC(=O)[C@H](Cc2cnc[nH]2)NC(=O)[C@H](Cc2c[nH]c3ccccc23)NC(=O)[C@H](CC(N)=O)NC(=O)[C@H](CC(N)=O)NC1=O)[C@@H](C)O [compound 46, Ac-M-W-T-(2Nal)-C(3)-N-N-W-H-D-C(3)-W-P-CONH2] (Ac-MWT[2Nal]CNNWHDCWP-NH2; disulfide 5-11)
1 to 10 | CC[C@H](C)[C@H](NC(=O)[C@@H](NC(=O)[C@H](Cc1c[nH]c2ccccc12)NC(C)=O)[C@@H](C)O)C(=O)N[C@H]1CSSC[C@@H](C(=O)N[C@@H](Cc2c[nH]c3ccccc23)C(=O)N2CCC[C@H]2C(N)=O)NC(=O)[C@H](CC(=O)O)NC(=O)[C@H](Cc2c[nH]cn2)NC(=O)[C@H](Cc2ccc(F)cc2)NC(=O)[C@H](CC(N)=O)NC(=O)[C@H](CC(N)=O)NC1=O [compound 49, Ac-W-T-I-C(3)-N-N-(4Fluoro-F)-H-D-C(3)-W-P-CONH2] (Ac-WTICNN[Phe(4-F)]HDCWP-NH2; disulfide 4-10)
1 to 10 | CC[C@H](C)[C@H](NC(=O)[C@@H](NC(=O)[C@H](Cc1c[nH]c2ccccc12)NC(C)=O)[C@@H](C)O)C(=O)N[C@H]1CSSC[C@@H](C(=O)N[C@@H](Cc2c[nH]c3ccccc23)C(=O)N2CCC[C@H]2C(N)=O)NC(=O)[C@H](CC(=O)O)NC(=O)[C@H](Cc2c[nH]cn2)NC(=O)[C@H](Cc2ccc(C(F)(F)F)cc2)NC(=O)[C@H](CC(N)=O)NC(=O)[C@H](CC(N)=O)NC1=O [compound 50, Ac-W-T-I-C(3)-N-N-(4CF3-F)-H-D-C(3)-W-P-CONH2] (Ac-WTICNN[Phe(4-CF3)]HDCWP-NH2; disulfide 4-10)
1 to 10 | CC[C@H](C)[C@H](NC(=O)[C@@H](NC(=O)[C@H](Cc1c[nH]c2ccccc12)NC(C)=O)[C@@H](C)O)C(=O)N[C@H]1CSSC[C@@H](C(=O)N[C@@H](Cc2c[nH]c3ncccc23)C(=O)N2CCC[C@H]2C(N)=O)NC(=O)[C@H](CC(=O)O)NC(=O)[C@H](Cc2c[nH]cn2)NC(=O)[C@H](Cc2c[nH]c3ccccc23)NC(=O)[C@H](CC(N)=O)NC(=O)[C@H](CC(N)=O)NC1=O [compound 51, Ac-W-T-I-C(3)-N-N-W-H-D-C(3)-(7Aza-W)-P-CONH2] (Ac-WTICNNWHDC[Trp(7-aza)]P-NH2; disulfide 4-10)
10 to 100 | CC[C@H](C)[C@H](NC(=O)[C@@H](NC(=O)[C@H](Cc1c[nH]c2ccccc12)NC(C)=O)[C@@H](C)O)C(=O)N[C@H]1CSSC[C@@H](C(=O)N[C@@H](Cc2ccc(F)cc2)C(=O)N2CCC[C@H]2C(N)=O)NC(=O)[C@H](CC(=O)O)NC(=O)[C@H](Cc2c[nH]cn2)NC(=O)[C@H](Cc2c[nH]c3ccccc23)NC(=O)[C@H](CC(N)=O)NC(=O)[C@H](CC(N)=O)NC1=O [compound 52, Ac-W-T-I-C(3)-N-N-W-H-D-C(3)-(4Fluoro-F)-P-CONH2] (Ac-WTICNNWHDC[Phe(4-F)]P-NH2; disulfide 4-10)
10 to 100 | CC[C@H](C)[C@H](NC(=O)[C@@H](NC(=O)[C@H](Cc1c[nH]c2ccccc12)NC(C)=O)[C@@H](C)O)C(=O)N[C@H]1CSSC[C@@H](C(=O)N[C@@H](Cc2c[nH]c3ccccc23)C(=O)N2CCC[C@H]2C(N)=O)NC(=O)[C@H](CC(=O)O)NC(=O)[C@H](Cc2cnc[nH]2)NC(=O)[C@H](Cc2ccc(-c3ccccc3)cc2)NC(=O)[C@H](CC(N)=O)NC(=O)[C@H](CC(N)=O)NC1=O [compound 53, Ac-W-T-I-C(3)-N-N-(BIP)-H-D-C(3)-W-P-CONH2] (Ac-WTICNN[Bip]HDCWP-NH2; disulfide 4-10)
100 to 300 | CC[C@H](C)[C@H](NC(=O)[C@@H](NC(=O)[C@H](Cc1c[nH]c2ccccc12)NC(C)=O)[C@@H](C)O)C(=O)N[C@H]1CCC(=O)NCC[C@@H](C(=O)N[C@@H](Cc2c[nH]c3ccccc23)C(=O)N2CCC[C@H]2C(N)=O)NC(=O)[C@H](CC(=O)O)NC(=O)[C@H](Cc2c[nH]cn2)NC(=O)[C@H](Cc2c[nH]c3ccccc23)NC(=O)[C@H](CC(N)=O)NC(=O)[C@H](CC(N)=O)NC1=O [compound 71] (Ac-WTIENNWHD[Dab]WP-NH2; lactam 4-10)
100 to 300 | CC[C@H](C)[C@H](NC(=O)[C@@H](NC(=O)[C@H](Cc1c[nH]c2ccccc12)NC(=O)[C@H](CCSC)NC(C)=O)[C@@H](C)O)C(=O)N[C@H]1CSSC[C@@H](C(=O)N[C@@H](Cc2c[nH]c3ccccc23)C(=O)N2CCC[C@H]2C(N)=O)NC(=O)[C@H](CC(=O)O)NC(=O)[C@@H](C)NC(=O)[C@H](Cc2c[nH]c3ccccc23)NC(=O)[C@H](CC(N)=O)NC(=O)[C@H](CC(N)=O)NC1=O [compound 72] (Ac-MWTICNNW[dA]DCWP-NH2; disulfide 5-11)
< 1 | CC(=O)N[C@@H](Cc1c[nH]c2ccccc12)C(=O)N[C@H](C(=O)N[C@@H](CC(C)(C)C)C(=O)N[C@H]1CSCSC[C@@H](C(=O)N[C@@H](Cc2c[nH]c3ccccc23)C(=O)N2CCC[C@H]2C(N)=O)NC(=O)[C@H](CC(=O)O)NC(=O)[C@H](CCCCNC(=O)CN2CCN(CC(=O)O)CCN(CC(=O)O)CCN(CC(=O)O)CC2)NC(=O)[C@H](Cc2ccc3ccccc3c2)NC(=O)[C@H](CC(N)=O)NC(=O)[C@H](CC2CCNCC2)NC1=O)[C@@H](C)O [compound 94] (Ac-WT[tBuAla]C[Ala(piperidin-4-yl)]N[2Nal]K(DOTA)DCWP-NH2; linker 4-10 via CH2)
100 to 300 | CC[C@@H](C)[C@@H](NC(=O)[C@H](NC(=O)[C@@H](Cc1c[nH]c2ccccc12)NC(C)=O)[C@H](C)O)C(=O)N[C@H]1CC(=O)NCC[C@@H](C(=O)N[C@@H](Cc2c[nH]c3ccccc23)C(=O)N2CCC[C@H]2C(N)=O)NC(=O)[C@H](CC(=O)O)NC(=O)[C@H](Cc2c[nH]cn2)NC(=O)[C@H](Cc2c[nH]c3ccccc23)NC(=O)[C@H](CC(N)=O)NC(=O)[C@H](CC(N)=O)NC1=O [compound 95, Ac-W-T-I-(L-Asp)*-N-N-W-H-D-(L-2,4-Dab)*-W-P-CONH2 (* denotes lactam between side chains between L-Asp and L-2,4-Dab)] (Ac-[dW][dT][dI]DNNWHD[Dab]WP-NH2; lactam 4-10)
100 to 300 | CC[C@H](C)[C@H](NC(=O)[C@@H](NC(=O)[C@H](Cc1c[nH]c2ccccc12)NC(C)=O)[C@@H](C)O)C(=O)N[C@H]1CC(=O)NC[C@@H](C(=O)N[C@@H](Cc2c[nH]c3ccccc23)C(=O)N2CCC[C@H]2C(N)=O)NC(=O)[C@H](CC(=O)O)NC(=O)[C@H](Cc2c[nH]cn2)NC(=O)[C@H](Cc2c[nH]c3ccccc23)NC(=O)[C@H](CC(N)=O)NC(=O)[C@H](CC(N)=O)NC1=O [compound 120, Ac-W-T-I-(L-Asp)*-N-N-W-H-D-(L-Dap)*-W-P-CONH2 (* denotes lactam between side chains between L-Asp and L-Dap)] (Ac-WTIDNNWHD[Dap]WP-NH2; lactam 4-10)
< 1 | CC(=O)N[C@@H](Cc1c[nH]c2ccccc12)C(=O)N[C@H](C(=O)N(C)[C@@H](CC(C)(C)C)C(=O)N[C@H]1CSCSC[C@@H](C(=O)N[C@@H](Cc2c[nH]c3ccccc23)C(=O)N2CCC[C@H]2C(N)=O)NC(=O)[C@H](CC(=O)O)NC(=O)[C@H](CCCCNC(=O)CN2CCN(CC(=O)O)CCN(CC(=O)O)CCN(CC(=O)O)CC2)NC(=O)[C@H](Cc2ccc3ccccc3c2)NC(=O)[C@H](CC(N)=O)NC(=O)[C@H](CC2CCNCC2)NC1=O)[C@@H](C)O [compound 153] (Ac-WT[NMetBuAla]C[Ala(piperidin-4-yl)]N[2Nal]K(DOTA)DCWP-NH2; linker 4-10 via CH2)
100 to 300 | CC[C@H](C)[C@H](NC(=O)[C@@H](NC(=O)[C@H](Cc1ccc(F)cc1)NC(C)=O)[C@@H](C)O)C(=O)N[C@H]1CSSC[C@@H](C(=O)N[C@@H](Cc2c[nH]c3ccccc23)C(=O)N2CCC[C@H]2C(N)=O)NC(=O)[C@H](CC(=O)O)NC(=O)[C@H](Cc2cnc[nH]2)NC(=O)[C@H](Cc2c[nH]c3ccccc23)NC(=O)[C@H](CC(N)=O)NC(=O)[C@H](CC(N)=O)NC1=O [compound 214, Ac-(4Fluoro-F)-T-I-C(3)-N-N-W-H-D-C(3)-W-P-CONH2] (Ac-[Phe(4-F)]TICNNWHDCWP-NH2; disulfide 4-10)
